Data from patent US12209087B2, “AKT1 modulators” (Alterome Therapeutics, Inc., priority 2022, dated 2025).

What follows are compounds tested against T1, full length AKT E17K (Homo sapiens, UniProt P31749, E17K) (assay: NanoBRET Target Engagement (TE) Assay). Conditions: competitive displacement of tracer in cells, read-out: AKT1 E17K IC50.
T1 construct: host or cells: HEK-293 (ATCC CRL-1573)
Format: cell-based
How it was run: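 Compound and tracer incubated 2 h before luminescence at donor 450 nm and acceptor 600 nm, with extracellular signal inhibited. EC50 by sigmoidal variable-slope regression.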

T1 sequence (P31749 whole entry E17K): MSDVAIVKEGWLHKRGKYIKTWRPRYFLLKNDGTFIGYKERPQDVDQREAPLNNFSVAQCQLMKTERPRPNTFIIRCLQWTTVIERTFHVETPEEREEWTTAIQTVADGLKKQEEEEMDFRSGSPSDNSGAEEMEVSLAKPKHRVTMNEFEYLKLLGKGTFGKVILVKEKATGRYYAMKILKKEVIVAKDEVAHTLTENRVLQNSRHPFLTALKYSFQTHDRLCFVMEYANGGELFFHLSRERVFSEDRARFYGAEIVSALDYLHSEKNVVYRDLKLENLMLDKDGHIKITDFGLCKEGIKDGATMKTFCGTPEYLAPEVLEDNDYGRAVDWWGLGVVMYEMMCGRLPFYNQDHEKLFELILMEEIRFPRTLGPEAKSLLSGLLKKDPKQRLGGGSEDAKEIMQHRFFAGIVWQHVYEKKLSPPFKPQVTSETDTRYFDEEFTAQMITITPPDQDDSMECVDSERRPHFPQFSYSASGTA

IC50 [nM] | SMILES
< 15 | N#Cc1ncnc(N2CCN(Cc3ccc(-n4c(-c5cccnc5N)nc5ccc(-c6ccc(F)cc6)nc54)cc3)CC2)n1 [Example 368, 4-(4-(4-(2-(2-Aminopyridin-3-yl)-5-(4-fluorophenyl)-3H-imidazo[4,5-b]pyridin-3-yl)benzyl)piperazin-1-yl)-1,3,5-triazine-2-carbonitrile]
15 to 60 | N#Cc1ncnc(N2CCN(Cc3ccc(-n4c(-c5cccnc5N)nc5ccc(-c6ccc(Cl)cc6)nc54)cc3)CC2)n1 [Example 369, 4-(4-(4-(2-(2-Aminopyridin-3-yl)-5-(4-chlorophenyl)-3H-imidazo[4,5-b]pyridin-3-yl)benzyl)piperazin-1-yl)-1,3,5-triazine-2-carbonitrile]
< 15 | N#Cc1nccc(NC2CCN(Cc3ccc(-n4c(-c5cccnc5N)nc5ccc(-c6ccc(F)cc6)nc54)cc3)CC2)n1 [Example 370, 4-((1-(4-(2-(2-Aminopyridin-3-yl)-5-(4-fluorophenyl)-3H-imidazo[4,5-b]pyridin-3-yl)benzyl)piperidin-4-yl)amino)pyrimidine-2-carbonitrile]
60 to 600 | N#Cc1ccnc(NC2CCN(Cc3ccc(-n4c(-c5cccnc5N)nc5ccc(-c6ccc(Cl)cc6)nc54)cc3)CC2)n1 [Example 371, 2-((1-(4-(2-(2-Aminopyridin-3-yl)-5-(4-chlorophenyl)-3H-imidazo[4,5-b]pyridin-3-yl)benzyl)piperidin-4-yl)amino)pyrimidine-4-carbonitrile]
15 to 60 | N#Cc1ccnc(NC2CCN(Cc3ccc(-n4c(-c5cccnc5N)nc5ccc(-c6cccc(Cl)c6)nc54)cc3)CC2)n1 [Example 372, 2-((1-(4-(2-(2-Aminopyridin-3-yl)-5-(3-chlorophenyl)-3H-imidazo[4,5-b]pyridin-3-yl)benzyl)piperidin-4-yl)amino)pyrimidine-4-carbonitrile]
15 to 60 | N#Cc1cc(NC2CCN(Cc3ccc(-n4c(-c5cccnc5N)nc5ccc(-c6cccc(Cl)c6)nc54)cc3)CC2)ncn1 [Example 373, 6-((1-(4-(2-(2-Aminopyridin-3-yl)-5-(3-chlorophenyl)-3H-imidazo[4,5-b]pyridin-3-yl)benzyl)piperidin-4-yl)amino)pyrimidine-4-carbonitrile]
15 to 60 | N#Cc1cc(N2CCN(Cc3ccc(-n4c(-c5cccnc5N)nc5ccc(-c6cccc(Cl)c6)nc54)cc3)CC2)ncn1 [Example 374, 6-(4-(4-(2-(2-Aminopyridin-3-yl)-5-(3-chlorophenyl)-3H-imidazo[4,5-b]pyridin-3-yl)benzyl)piperazin-1-yl)pyrimidine-4-carbonitrile]
15 to 60 | N#Cc1nccc(N2C[C@@H]3C[C@H]2CN3Cc2ccc(-n3c(-c4cccnc4N)nc4ccc(-c5ccccc5)nc43)cc2)n1 [Example 375, 4-((1S,4S)-5-(4-(2-(2-Aminopyridin-3-yl)-5-phenyl-3H-imidazo[4,5-b]pyridin-3-yl)benzyl)-2,5-diazabicyclo[2.2.1]heptan-2-yl)pyrimidine-2-carbonitrile]
60 to 600 | N#Cc1cc(N2C[C@@H]3C[C@H]2CN3Cc2ccc(-n3c(-c4cccnc4N)nc4ccc(-c5ccccc5)nc43)cc2)ncn1 [Example 376, 6-((1S,4S)-5-(4-(2-(2-Aminopyridin-3-yl)-5-phenyl-3H-imidazo[4,5-b]pyridin-3-yl)benzyl)-2,5-diazabicyclo[2.2.1]heptan-2-yl)pyrimidine-4-carbonitrile]
60 to 600 | N#Cc1ccnc(N2C[C@@H]3C[C@H]2CN3Cc2ccc(-n3c(-c4cccnc4N)nc4ccc(-c5ccccc5)nc43)cc2)n1 [Example 377, 2-((1S,4S)-5-(4-(2-(2-Aminopyridin-3-yl)-5-phenyl-3H-imidazo[4,5-b]pyridin-3-yl)benzyl)-2,5-diazabicyclo[2.2.1]heptan-2-yl)pyrimidine-4-carbonitrile]
60 to 600 | C[C@@H]1CN(Cc2ccc(-n3c(-c4cccnc4N)nc4ccc(-c5ccccc5)nc43)cc2)C[C@H](C)N1c1ccnc(C#N)n1 [Example 378, 4-((2S,6R)-4-(4-(2-(2-Aminopyridin-3-yl)-5-phenyl-3H-imidazo[4,5-b]pyridin-3-yl)benzyl)-2,6-dimethylpiperazin-1-yl)pyrimidine-2-carbonitrile]
600 to 10000 | C[C@@H]1CN(Cc2ccc(-n3c(-c4cccnc4N)nc4ccc(-c5ccccc5)nc43)cc2)C[C@H](C)N1c1nccc(C#N)n1 [Example 379, 2-((2S,6R)-4-(4-(2-(2-Aminopyridin-3-yl)-5-phenyl-3H-imidazo[4,5-b]pyridin-3-yl)benzyl)-2,6-dimethylpiperazin-1-yl)pyrimidine-4-carbonitrile]
600 to 10000 | C[C@@H]1CN(Cc2ccc(-n3c(-c4cccnc4N)nc4ccc(-c5ccccc5)nc43)cc2)C[C@H](C)N1c1cc(C#N)ncn1 [Example 380, 6-((2S,6R)-4-(4-(2-(2-Aminopyridin-3-yl)-5-phenyl-3H-imidazo[4,5-b]pyridin-3-yl)benzyl)-2,6-dimethylpiperazin-1-yl)pyrimidine-4-carbonitrile]
< 15 | N#Cc1nccc(NC2CCN(Cc3ccc(-n4c(-c5cccnc5N)nc5ccc(-c6ccc[nH]c6=O)nc54)cc3)CC2)n1 [Example 381, 4-((1-(4-(2-(2-Aminopyridin-3-yl)-5-(2-oxo-1,2-dihydropyridin-3-yl)-3H-imidazo[4,5-b]pyridin-3-yl)benzyl)piperidin-4-yl)amino)pyrimidine-2-carbonitrile]
15 to 60 | N#Cc1ncnc(NC2CCN(Cc3ccc(-n4c(-c5cccnc5N)nc5ccc(-c6ccc(Cl)cc6)nc54)cc3)CC2)n1 [Example 382, 4-((1-(4-(2-(2-Aminopyridin-3-yl)-5-(4-chlorophenyl)-3H-imidazo[4,5-b]pyridin-3-yl)benzyl)piperidin-4-yl)amino)-1,3,5-triazine-2-carbonitrile]
< 15 | N#Cc1nccc(N2CCN(Cc3ccc(-n4c(-c5cccnc5N)nc5ccc(-c6cnccc6C#N)nc54)cc3)CC2)n1 [Example 383, 4-(4-(4-(2-(2-Aminopyridin-3-yl)-5-(4-cyanopyridin-3-yl)-3H-imidazo[4,5-b]pyridin-3-yl)benzyl)piperazin-1-yl)pyrimidine-2-carbonitrile]
15 to 60 | N#Cc1nccc(NC2CCN(Cc3ccc(-n4c(-c5cccnc5N)nc5ccc(-c6cnccc6C#N)nc54)cc3)CC2)n1 [Example 384, 4-((1-(4-(2-(2-Aminopyridin-3-yl)-5-(4-cyanopyridin-3-yl)-3H-imidazo[4,5-b]pyridin-3-yl)benzyl)piperidin-4-yl)amino)pyrimidine-2-carbonitrile]
15 to 60 | [2H]C([2H])(c1ccc(-n2c(-c3cccnc3N)nc3cccnc32)cc1)N1CCC(Nc2ccnc(C#N)n2)CC1 [Example 385, 4-((1-((4-(2-(2-Aminopyridin-3-yl)-3H-imidazo[4,5-b]pyridin-3-yl)phenyl)methyl-d2)piperidin-4-yl)amino)pyrimidine-2-carbonitrile]
15 to 60 | CN1CCCN(c2ccc3nc(-c4cccnc4N)n(-c4ccc(CN5CCN(c6ccnc(C#N)n6)CC5)cc4)c3n2)CC1=O [Example 386, 4-(4-(4-(2-(2-Aminopyridin-3-yl)-5-(4-methyl-3-oxo-1,4-diazepan-1-yl)-3H-imidazo[4,5-b]pyridin-3-yl)benzyl)piperazin-1-yl)pyrimidine-2-carbonitrile]
60 to 600 | N#Cc1nccc(NC2CCN(Cc3ccc(-n4c(-c5cccnc5N)nc5ccc(N6CCOCC6=O)nc54)cc3)CC2)n1 [Example 387, 4-((1-(4-(2-(2-Aminopyridin-3-yl)-5-(3-oxomorpholino)-3H-imidazo[4,5-b]pyridin-3-yl)benzyl)piperidin-4-yl)amino)pyrimidine-2-carbonitrile]
< 15 | N#Cc1nccc(NC2CCN(Cc3ccc(-n4c(-c5cccnc5N)nc5ccc(C6CCCC6)nc54)cc3)CC2)n1 [Example 388, 4-((1-(4-(2-(2-Aminopyridin-3-yl)-5-cyclopentyl-3H-imidazo[4,5-b]pyridin-3-yl)benzyl)piperidin-4-yl)amino)pyrimidine-2-carbonitrile]
< 15 | CN(C)c1ccc2nc(-c3cccnc3N)n(-c3ccc(CN4CCC(Nc5ccnc(C#N)n5)CC4)cc3)c2n1 [Example 389, 4-((1-(4-(2-(2-Aminopyridin-3-yl)-5-(dimethylamino)-3H-imidazo[4,5-b]pyridin-3-yl)benzyl)piperidin-4-yl)amino)pyrimidine-2-carbonitrile]
< 15 | N#Cc1ncnc(NC2CCN(Cc3ccc(-n4c(-c5cccnc5N)nc5ccc(-c6ccccc6)nc54)cc3)CC2)n1 [Example 391, 4-((1-(4-(2-(2-Aminopyridin-3-yl)-5-phenyl-3H-imidazo[4,5-b]pyridin-3-yl)benzyl)piperidin-4-yl)amino)-1,3,5-triazine-2-carbonitrile]
60 to 600 | CC1(Nc2ccnc(C#N)n2)CCN(Cc2ccc(-n3c(-c4cccnc4N)nc4cccnc43)cc2)CC1 [Example 392, 4-((1-(4-(2-(2-Aminopyridin-3-yl)-3H-imidazo[4,5-b]pyridin-3-yl)benzyl)-4-methylpiperidin-4-yl)amino)pyrimidine-2-carbonitrile]
600 to 10000 | Cn1c(-c2ccc3nc(-c4cccnc4N)n(-c4ccc(CN5CCC(Nc6ccnc(C#N)n6)CC5)cc4)c3n2)cccc1=O [Example 393, 4-((1-(4-(2-(2-Aminopyridin-3-yl)-5-(1-methyl-6-oxo-1,6-dihydropyridin-2-yl)-3H-imidazo[4,5-b]pyridin-3-yl)benzyl)piperidin-4-yl)amino)pyrimidine-2-carbonitrile]
600 to 10000 | Cn1c(-c2ccc3nc(-c4cccnc4N)n(-c4ccc(CN5CCN(c6ccnc(C#N)n6)CC5)cc4)c3n2)cccc1=O [Example 394, 4-(4-(4-(2-(2-Aminopyridin-3-yl)-5-(1-methyl-6-oxo-1,6-dihydropyridin-2-yl)-3H-imidazo[4,5-b]pyridin-3-yl)benzyl)piperazin-1-yl)pyrimidine-2-carbonitrile]

SMILES | IC50 [nM]
CN(c1ccnc(C#N)n1)C1CCN(Cc2ccc(-n3c(-c4cccnc4N)nc4cccnc43)cc2)CC1 [Example 390, 4-((1-(4-(2-(2-Aminopyridin-3-yl)-3H-imidazo[4,5-b]pyridin-3-yl)benzyl)piperidin-4-yl)(methyl)amino)pyrimidine-2-carbonitrile] | < 15
